ChEMBL document CHEMBL1148514, “Development of lipopeptides for inhibiting 20S proteasomes” (Bioorg Med Chem Lett, 2006)
Residues, ends and D or L forms follow the SMILES beside them.

Legend:
Proteasome component C5 = target: T1, Proteasome component C5 (Saccharomyces cerevisiae S288c, UniProt P23724); assay: Inhibition of post acid activity of yeast 20S proteasome
T1 sequence (P23724 whole entry): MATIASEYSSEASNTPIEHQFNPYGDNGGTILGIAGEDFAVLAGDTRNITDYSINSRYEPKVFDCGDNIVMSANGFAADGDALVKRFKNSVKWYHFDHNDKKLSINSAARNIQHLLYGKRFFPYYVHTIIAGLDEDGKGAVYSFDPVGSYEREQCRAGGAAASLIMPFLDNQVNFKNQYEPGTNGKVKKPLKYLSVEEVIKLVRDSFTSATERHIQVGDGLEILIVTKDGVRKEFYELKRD

[1] = target: T2, Proteasome Macropain subunit PRE2 (Saccharomyces cerevisiae S288c, UniProt P30656); assay: Inhibition of chymotrypsin like activity of yeast 20S proteasome
T2 sequence (P30656 whole entry): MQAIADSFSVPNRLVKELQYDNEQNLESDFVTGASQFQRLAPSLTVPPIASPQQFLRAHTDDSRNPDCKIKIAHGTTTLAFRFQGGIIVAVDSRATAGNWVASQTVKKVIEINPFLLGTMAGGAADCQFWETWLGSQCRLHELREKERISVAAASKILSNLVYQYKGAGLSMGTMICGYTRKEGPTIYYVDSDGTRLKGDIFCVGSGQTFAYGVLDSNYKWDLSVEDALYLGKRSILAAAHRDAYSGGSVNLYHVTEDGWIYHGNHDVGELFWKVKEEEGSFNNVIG

[2] = target: T3, Proteasome Macropain subunit (Saccharomyces cerevisiae S288c) (UniProt P22141); assay: Inhibition of trypsin like activity of yeast 20S proteasome at 80 uM
T3 sequence (whole entry): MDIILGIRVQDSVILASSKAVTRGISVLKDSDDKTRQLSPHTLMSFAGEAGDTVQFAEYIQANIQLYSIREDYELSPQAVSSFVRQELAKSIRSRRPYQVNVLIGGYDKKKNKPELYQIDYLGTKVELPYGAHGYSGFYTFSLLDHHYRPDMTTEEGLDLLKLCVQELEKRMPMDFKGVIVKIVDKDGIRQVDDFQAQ

[3] = target: T4, Proteasome component C5 (Saccharomyces cerevisiae S288c) (UniProt P23724); assay: Activation of post acid activity of yeast 20S proteasome
T4 sequence (whole entry): T1 sequence (P23724 whole entry)

[4] = target: T5, Proteasome Macropain subunit (Saccharomyces cerevisiae S288c, UniProt P22141); assay: Inhibition of trypsin like activity of yeast 20S proteasome
T5 sequence (P22141 whole entry): T3 sequence (whole entry)

[5] = target: T3, Proteasome Macropain subunit (Saccharomyces cerevisiae S288c); assay: Inhibition of trypsin like activity of yeast 20S proteasome at 625 uM
[6] = target: T4, Proteasome component C5 (Saccharomyces cerevisiae S288c); assay: Inhibition of post acid activity of yeast 20S proteasome at 80 uM
[7] = target: T6, Proteasome Macropain subunit PRE2 (Saccharomyces cerevisiae S288c) (UniProt P30656); assay: Inhibition of chymotrypsin like activity of yeast 20S proteasome at 80 uM
T6 sequence (whole entry): T2 sequence (P30656 whole entry)

Row | Compound | Ki (Proteasome component C5) | Ki [1] | other results
1 | CCCCCCCC(=O)N[C@H](C(=O)N[C@H](C(=O)N[C@H](C(=O)N[C@@H](Cc1ccccc1)C(=O)N[C@@H](CC(=O)O)C(=O)N[C@@H](Cc1ccc(O)cc1)C(=O)O)[C@@H](C)O)[C@@H](C)CC)[C@@H](C)O (HELM PEPTIDE1{[CCCCCCCC(=O)[*:2]].T.I.T.F.D.Y}$$$$V2.0) | > 80 µM | 43 µM | inhibition [2]: < 10%
2 | CCCCCCCCCCCC(=O)N[C@H](C(=O)N[C@H](C(=O)N[C@H](C(=O)N[C@@H](Cc1ccc(O)cc1)C(=O)N[C@@H](CCCCN)C(=O)N[C@@H](Cc1ccccc1)C(=O)O)[C@@H](C)O)C(C)C)[C@@H](C)O (HELM PEPTIDE1{[CCCCCCCCCCCC(=O)[*:2]].T.V.T.Y.K.F}$$$$V2.0) | – | > 80 µM | Activity [3]: 1.2; Ki [4]: 68 µM
3 | CCCCCCCCCCCCCCCC(=O)N[C@H](C(=O)N[C@H](C(=O)N[C@H](C(=O)N[C@@H](Cc1ccccc1)C(=O)N[C@@H](CC(=O)O)C(=O)N[C@@H](Cc1ccc(O)cc1)C(=O)O)[C@@H](C)O)[C@@H](C)CC)[C@@H](C)O (HELM PEPTIDE1{[CCCCCCCCCCCCCCCC(=O)[*:2]].T.I.T.F.D.Y}$$$$V2.0) | – | 80 µM | Activity [3]: 1.5; inhibition [2]: < 10%
4 | H-TVSYKF-OH | > 625 µM | > 625 µM | inhibition [5]: < 10%
5 | CCCCCC(=O)N[C@H](C(=O)N[C@H](C(=O)N[C@H](C(=O)N[C@@H](Cc1ccccc1)C(=O)N[C@@H](CCCCN)C(=O)N[C@@H](Cc1ccccc1)C(=O)O)[C@@H](C)O)C(C)C)[C@@H](C)O (HELM PEPTIDE1{[CCCCCC(=O)[*:2]].T.V.T.F.K.F}$$$$V2.0) | – | 43 µM | inhibition [6]: < 10%; inhibition [2]: < 10%
6 | H-TITFDY-OH | > 625 µM | > 625 µM | inhibition [5]: < 10%
7 | CCCCCCCCCCCCCCCC(=O)N[C@@H](Cc1ccc(O)cc1)C(=O)N[C@@H](CC(N)=O)C(=O)N[C@H](C(=O)O)[C@@H](C)O (HELM PEPTIDE1{[CCCCCCCCCCCCCCCC(=O)[*:2]].Y.N.T}$$$$V2.0) | – | 30 µM | –
8 | CCCCCCCCCC(=O)N[C@H](C(=O)N[C@H](C(=O)N[C@H](C(=O)N[C@@H](Cc1ccc(O)cc1)C(=O)N[C@@H](CCCCN)C(=O)N[C@@H](Cc1ccccc1)C(=O)O)[C@@H](C)O)C(C)C)[C@@H](C)O (HELM PEPTIDE1{[CCCCCCCCCC(=O)[*:2]].T.V.T.Y.K.F}$$$$V2.0) | – | 72 µM | Activity [3]: 1.2; inhibition [2]: < 10%
9 | CCCCCC(=O)N[C@H](C(=O)N[C@H](C(=O)N[C@H](C(=O)N[C@@H](Cc1ccc(O)cc1)C(=O)N[C@@H](CCCCN)C(=O)N[C@@H](Cc1ccccc1)C(=O)O)[C@@H](C)O)C(C)C)[C@@H](C)O (HELM PEPTIDE1{[CCCCCC(=O)[*:2]].T.V.T.Y.K.F}$$$$V2.0) | – | 80 µM | inhibition [6]: < 10%; Ki [4]: 315 µM
10 | H-TISYDY-OH | > 625 µM | > 625 µM | inhibition [5]: < 10%
11 | CCCCCC(=O)N[C@H](C(=O)N[C@H](C(=O)N[C@H](C(=O)N[C@@H](Cc1ccccc1)C(=O)N[C@@H](CC(=O)O)C(=O)N[C@@H](Cc1ccc(O)cc1)C(=O)O)[C@@H](C)O)[C@@H](C)CC)[C@@H](C)O (HELM PEPTIDE1{[CCCCCC(=O)[*:2]].T.I.T.F.D.Y}$$$$V2.0) | – | 34 µM | inhibition [6]: < 10%; inhibition [2]: < 10%
12 | H-TVTYKY-OH | > 625 µM | > 625 µM | inhibition [5]: < 10%
13 | CCCCCCCCCCCCCCCC(=O)N[C@@H](Cc1ccc(O)cc1)C(=O)N[C@@H](CCC(=O)O)C(=O)N[C@H](C(=O)O)[C@@H](C)O (HELM PEPTIDE1{[CCCCCCCCCCCCCCCC(=O)[*:2]].Y.E.T}$$$$V2.0) | 21 µM | 20 µM | –
14 | CCCCCCCCCC(=O)N[C@@H](Cc1ccc(O)cc1)C(=O)N[C@@H](CCC(=O)O)C(=O)N[C@@H](CC(C)C)C(=O)O (HELM PEPTIDE1{[CCCCCCCCCC(=O)[*:2]].Y.E.L}$$$$V2.0) | 72 µM | – | inhibition [2]: < 10%; inhibition [7]: < 10%
15 | CCCCCCCCCCCCCCCC(=O)N[C@@H](Cc1ccc(O)cc1)C(=O)N[C@@H](CCCCN)C(=O)N[C@@H](Cc1ccccc1)C(=O)O (HELM PEPTIDE1{[CCCCCCCCCCCCCCCC(=O)[*:2]].Y.K.F}$$$$V2.0) | – | 81 µM | inhibition [6]: < 10%; Ki [4]: > 80 µM
16 | CCCCCCCCCCCCCCCC(=O)N[C@@H](Cc1ccccc1)C(=O)N[C@@H](CCCCN)C(=O)N[C@@H](Cc1ccccc1)C(=O)O (HELM PEPTIDE1{[CCCCCCCCCCCCCCCC(=O)[*:2]].F.K.F}$$$$V2.0) | – | 30 µM | inhibition [6]: < 10%; Ki [4]: > 80 µM
17 | CCCCCC(=O)N[C@@H](Cc1ccc(O)cc1)C(=O)N[C@@H](CCC(=O)O)C(=O)N[C@@H](CC(C)C)C(=O)O (HELM PEPTIDE1{[CCCCCC(=O)[*:2]].Y.E.L}$$$$V2.0) | 59 µM | > 80 µM | inhibition [2]: < 10%
18 | CCCCCCCCCCCCCCCC(=O)N[C@@H](Cc1ccc(O)cc1)C(=O)N[C@@H](CCC(=O)O)C(=O)N[C@@H](CC(C)C)C(=O)O (HELM PEPTIDE1{[CCCCCCCCCCCCCCCC(=O)[*:2]].Y.E.L}$$$$V2.0) | 15 µM | 18 µM | Ki [4]: > 80 µM
19 | H-TITYDL-OH | > 625 µM | 619 µM | inhibition [5]: < 10%
20 | CCCCCCCCCC(=O)N[C@H](C(=O)N[C@H](C(=O)N[C@H](C(=O)N[C@@H](Cc1ccccc1)C(=O)N[C@@H](CCCCN)C(=O)N[C@@H](Cc1ccccc1)C(=O)O)[C@@H](C)O)C(C)C)[C@@H](C)O (HELM PEPTIDE1{[CCCCCCCCCC(=O)[*:2]].T.V.T.F.K.F}$$$$V2.0) | – | 28 µM | –
21 | CCCCCCCCCCCCCCC(N)C(=O)N[C@@H](Cc1ccc(O)cc1)C(=O)N[C@@H](CCC(=O)O)C(=O)N[C@H](C(=O)O)[C@@H](C)O (stereo not given in full) (HELM PEPTIDE1{[CCCCCCCCCCCCCCC(N)C(=O)[*:2]].Y.E.T}$$$$V2.0) | 8 µM | 5 µM | –
22 | CCCCCCCCCC(=O)N[C@H](C(=O)N[C@H](C(=O)N[C@H](C(=O)N[C@@H](Cc1ccccc1)C(=O)N[C@@H](CC(=O)O)C(=O)N[C@@H](Cc1ccc(O)cc1)C(=O)O)[C@@H](C)O)[C@@H](C)CC)[C@@H](C)O (HELM PEPTIDE1{[CCCCCCCCCC(=O)[*:2]].T.I.T.F.D.Y}$$$$V2.0) | – | 37 µM | –
23 | CCCCCCCCCCCCCC(=O)N[C@H](C(=O)N[C@H](C(=O)N[C@H](C(=O)N[C@@H](Cc1ccc(O)cc1)C(=O)N[C@@H](CCCCN)C(=O)N[C@@H](Cc1ccccc1)C(=O)O)[C@@H](C)O)C(C)C)[C@@H](C)O (HELM PEPTIDE1{[CCCCCCCCCCCCCC(=O)[*:2]].T.V.T.Y.K.F}$$$$V2.0) | – | – | Activity [3]: 1.2; Ki [4]: 80 µM
24 | CCCCCCCCCCCCCCCC(=O)N[C@@H](Cc1ccc(O)cc1)C(=O)N[C@@H](CC(=O)O)C(=O)N[C@@H](CC(C)C)C(=O)O (HELM PEPTIDE1{[CCCCCCCCCCCCCCCC(=O)[*:2]].Y.D.L}$$$$V2.0) | 15 µM | 20 µM | Ki [4]: > 80 µM
25 | CCCCCCCC(=O)N[C@H](C(=O)N[C@H](C(=O)N[C@H](C(=O)N[C@@H](Cc1ccccc1)C(=O)N[C@@H](CCCCN)C(=O)N[C@@H](Cc1ccccc1)C(=O)O)[C@@H](C)O)C(C)C)[C@@H](C)O (HELM PEPTIDE1{[CCCCCCCC(=O)[*:2]].T.V.T.F.K.F}$$$$V2.0) | – | > 80 µM | –
26 | CCCCCCCCCCCC(=O)N[C@H](C(=O)N[C@H](C(=O)N[C@H](C(=O)N[C@@H](Cc1ccccc1)C(=O)N[C@@H](CC(=O)O)C(=O)N[C@@H](Cc1ccc(O)cc1)C(=O)O)[C@@H](C)O)[C@@H](C)CC)[C@@H](C)O (HELM PEPTIDE1{[CCCCCCCCCCCC(=O)[*:2]].T.I.T.F.D.Y}$$$$V2.0) | > 80 µM | > 80 µM | Ki [4]: > 80 µM
27 | H-TVTFKF-OH | 148 µM | 139 µM | inhibition [5]: < 10%
